The values that follow come from publication PMC9571264 (Molecules, 2022).

The subject of one data set is Lung Cancer A549. In words: MTT cytotoxicity assay, A549. The conditions noted are these: Homo sapiens, 48 h, read-out: IC50 (µM) ± SEM, Lung Cancer A549. In kind it is cell-based. The protocol: (§1) Cytotoxic activities of the synthesized derivatives were screened against leukemia (HL60), liver (HepG2), breast (MCF-7), and lung (A549) cancer cell lines and non-cancerous THLE2 and WISH cells at different concentrations [0.01–100 µM] for 48 h using the MTT assay (Table 1).
(§2) Human promyelocytic leukemia ”HL-60”, human hepatocellular carcinoma “HepG2”, human breast cancer “MCF-7”, human lung cancer “A549” cell lines, and two normal cell lines, THLE-2 as normal adult liver epithelial cells and WISH as normal epithelial cells, were obtained from American Type Culture Collection “Rockville, MD, USA”.
(§3) According to the manufacturer’s protocol, the cells were seeded in 96-well plates at a concentration of 5 × 10^4 cells per well (200 µL). Different concentrations of the tested compounds were used to test the cytotoxicity. […] A non-linear regression of curve fit was used to calculate the IC50.

The test system of the next data set is Breast Cancer MCF-7. The experiment in a line: MTT cytotoxicity assay, MCF-7. In kind it is cell-based. The conditions noted are these: Homo sapiens, MCF7, 48 h, read-out: IC50 (µM) ± SEM, Breast Cancer MCF-7. The protocol:
as §1, §2, §3

Another data set relates to Leukemia Cancer HL60. The experiment in a line: MTT cytotoxicity assay, HL60. In kind it is cell-based. The conditions noted are these: Homo sapiens, HL-60, 48 h, read-out: IC50 (µM) ± SEM, Leukemia Cancer HL60. The protocol: as §1, §2, §3
In general terms: Formazan colour is commonly taken as a measure of viable cells.

The next data set concerns Liver Cancer HepG2. In words: MTT cytotoxicity assay, HepG2. In kind it is cell-based, human. The conditions noted are these: read-out: IC50 (µM) ± SEM, Liver Cancer HepG2. The protocol:
as §1, §2, §3

The subject of data set [1] is HepG2. The conditions noted are these: ref [37]; cited from earlier work.
Another data set relates to Normal Liver THLE2. The experiment in a line: MTT cytotoxicity assay, normal THLE2. In kind it is cell-based. The conditions noted are these: Homo sapiens, THLE-2, 48 h, read-out: IC50 (µM) ± SEM, Normal Liver THLE2. The protocol:
as §1, §2, §3

Data set [2] deals with promyelocytic leukemia cell line (HL60). More on the design: method as in PMID 19322800. The conditions noted are these: ref [38]; cited from earlier work.
The subject of data set [3] is non-small-cell lung cancer HOP-92. Set-up: method as in PMID 21439691. The conditions noted are these: ref [39]; cited from earlier work.
Another data set deals with colon cancer HCC-2998. More on the design: method as in PMID 21439691. The conditions noted are these: ref [39]; cited from earlier work.
For a further data set, the system named is leukemia CCRF-CEM. Set-up: method as in PMID 21439691. The conditions noted are these: ref [39]; cited from earlier work.
Data set [4] relates to HepG2. More on the design: method as in PMID 24148965, PMID 26890810. The conditions noted are these: ref [41],[43]; read-out: IC50 on HepG2 (apoptotic effect); cited from earlier work.

Structures are written as SMILES. ≈ marks a conversion by molar mass, not a printed value. Read-outs that look alike come from different tables or passages of the source.

By melting point is commonly meant the temperature of the solid-liquid transition. Usually IC50 stands for the concentration that gives 50% inhibition. As for `Cc1cc(=O)oc2cc(OC(=O)/C=C/c3ccccc3)ccc12` [Compound 8a, (2E)-4-Methyl-2-oxo-2H-chromen-7-yl Cinnamate], the melting point was 96 °C. Further, in the data set with Lung Cancer A549, the 50% inhibitory concentration (IC50) came out at 19.6 ± 0.89 µM. The 50% inhibitory concentration (IC50) in the data set on Breast Cancer MCF-7 came to 39.3 ± 1.69 µM. In addition, the IC50 in the data set on Leukemia Cancer HL60 was 34.8 ± 0.64 µM. Further, the IC50 in the data set on Liver Cancer HepG2 (48 h) came out at 75.2 ± 1.39 µM.

`O=C(O)/C=C/c1ccccc1` [Compound 6, cinnamic acid]: the half-inhibitory concentration (IC50) with Lung Cancer A549 came to 27.6 ± 1.95 µM; in the data set on Breast Cancer MCF-7 it was 28.6 ± 0.91 µM; in the data set with Leukemia Cancer HL60, 88.21 ± 0.51 µM; with Liver Cancer HepG2 (Homo sapiens, HepG2, 48 h), 36.58 ± 0.19 µM.

In the case of `CN[C@@H]1C[C@H]2O[C@@](C)([C@@H]1OC)n1c3ccccc3c3c4c(c5c6ccccc6n2c5c31)C(=O)NC4` [Staurosporine, reference compound], the IC50 in the data set on Lung Cancer A549 is 3.7 ± 0.09 µM; in the data set on Breast Cancer MCF-7, 3.06 ± 0.42 µM.

Regarding `Cc1cc(=O)oc2cc(OCC(=O)N/N=C/c3ccc(Br)cc3)ccc12` [IV], the “IC50 against HepG2” value with HepG2 [1] was 4.67 ± 0.78 mg/L (≈ 11.2 µM).

The molecule `Cc1c(Br)c(=O)oc2cc(OC(=O)/C=C/c3ccccc3)ccc12` [Compound 8c, (2E)-3-bromo-4-methyl-2-oxo-2H-chromen-7-yl cinnamate] had a melting point of 170 °C. Moreover, in the data set with Normal Liver THLE2, the IC50 was 124 ± 2.12 µM. In addition, the concentration for half-maximal inhibition (IC50) in the data set with Lung Cancer A549 turned out to be 24.3 ± 0.37 µM. Moreover, in the data set with Breast Cancer MCF-7, the half-inhibitory concentration (IC50) worked out at 67.3 ± 2.03 µM. Further, the IC50 with Leukemia Cancer HL60 was determined as 48.1 ± 0.88 µM. Further, the half-inhibitory concentration (IC50) in the data set on Liver Cancer HepG2 (Homo sapiens, HepG2, 48 h) turned out to be 17.4 ± 0.19 µM.

Broadly, the GI50 is the concentration at which growth is held to half of that of the control. As for `Cc1cc(=O)oc2cc(OC(C)/C=C/C3=CC(=O)C(C)(C)O3)ccc12` (centres unmarked) [V], in data set [2], the GI50 was 0.5 ± 0.02 µM.

Regarding `COc1cccc2c1C(=O)c1c(O)c3c(c(O)c1C2=O)C[C@@](O)(C(=O)CO)C[C@@H]3O[C@H]1C[C@H](N)[C@H](O)[C@H](C)O1` [doxorubicin], the “IC50 against HepG2” value in the data set on HepG2 [1] is 2.11 ± 0.13 mg/L (≈ 3.88 µM).

Take `CC(=O)c1cc2c(C)cc(=O)oc2cc1OCCN1CCOCC1` [VI]: the “GI, non-small-cell lung cancer HOP-92” value in data set [3] is 237.8 µM. Further, the “GI, colon cancer HCC-2998” value with colon cancer HCC-2998 is 341.4 µM. Also, the “GI, leukemia CCRF-CEM” value with leukemia CCRF-CEM was 627.1 µM.

`Cc1cc(=O)oc2cc(O)ccc12` [Compound 3, 7-Hydroxy-4-methylcoumarin]: the IC50 stood at 16.5 ± 1.98 µM with Lung Cancer A549; 29.3 ± 1.02 µM in the data set with Breast Cancer MCF-7; 42.55 ± 0.22 µM in the data set on Leukemia Cancer HL60; 95.7 ± 1.13 µM with Liver Cancer HepG2 (Homo sapiens, HepG2, 48 h).

For `C/C(=N\NC(=O)COc1ccc2c(C)cc(=O)oc2c1)c1ccc(Cl)cc1` [III], the “IC50 against HepG2” value in the data set on HepG2 [1] is 2.84 ± 0.48 mg/L (≈ 7.38 µM).

Regarding `O=C/C=C/c1ccccc1` [cinnamaldehyde], the IC50 with HepG2 [4] was 9.76 ± 0.67 µM.
